Reference: US7767789B2, “Truncated proteins as cancer markers” (University Hopitals of Cleveland, priority 2005, dated 2010)

Assays:
[1] = test system: HEK-293 cells (wild-type, expressing P2X7 or P2X7-j); assay: Cell-number index of HEK-293 cells grown in culture; format: cell-based, human; details: 100 micromolar BzATP
Description: Alterations in cell number for HEK-293 cells, HEK-293 cells expressing P2X7-RFL, and HEK-293 cells expressing P2X7-RTR grown in culture were studied. FIG. 15A. The three cells lines were grown in culture and viable cells were counted for a period of 3 days. The data are presented as cell number index versus days in culture. […] For example, a P2X7-RFL receptor protein may facilitate cellular apoptosis (infra).
The cell number of wild-type HEK-293 cells and of HEK-293 cells expressing P2X7-j protein increased to a greater degree than that of HEK-293 cells expressing the P2X7 protein. FIG. 15A.

[2] = test system: HEK-293-P2X7 cells; assay: Apoptosis, Cell Death Detection ELISA-PLUS, HEK-293 cells; format: cell-based, human; details: BzATP 50 micromolar
Description: Baseline and BzATP-induced apoptosis in MDCK cells and in HEK-293 cells expressing P2X7 and P2X7-j proteins were studied. FIG. 17. […] Cells were treated with BzATP (50 micromolar) to activate the P2X7 receptors. Apoptosis was quantified using Cell Death Detection ELISA-PLUS photometric enzyme-immunoassay that determines cytoplasmic histone-associated-DNA-fragments (mono and oligonucleosomes) after spontaneous or induced cell death (Roche, Cat. No. 1774425, 96 tests). […] Expression of the P2X7-j proteins either had no effect (HEK-293 cells) or may have decreased apoptosis (MDCK cells).

[3] = biological target: T1, P2X7 channel (HEK-293 cells expressing P2X7 or P2X7-j) (Homo sapiens, UniProt Q99572, R270H/Y155H); format: cell-based; details: HEK-293-P2X7 cells; 100 micromolar BzATP
T1 construct: expressed in transfected cells; host or cells: HEK-293

[4] = biological target: T2, P2X7 channel (HEK-293 cells expressing P2X7 or P2X7-j) (Homo sapiens, UniProt Q99572, Y155H); format: cell-based; details: HEK-293-P2X7-j cells compared to HEK-293-P2X7 cells
T2 construct: expressed in transfected cells; host or cells: HEK-293

[5] = test system: P2X7 channel (HEK-293 cells expressing P2X7 or P2X7-j); format: cell-based, human; details: P2X7 plus P2X7-j HEK-293 cells compared to P2X7 HEK-293 cells
[6] = biological target: T3, P2X7-mediated pore (MDCK cells expressing P2X7 or P2X7-j) (Homo sapiens, UniProt Q99572, R270H/Y155H); assay: BzATP-stimulated pore activation (ethidium bromide entry), MDCK cells; format: cell-based; details: doxycycline-treated MDCK-P2X7 cells; BzATP 100 micromolar
T3 construct: expressed in transfected cells; host or cells: MDCK (canine kidney), doxycycline-inducible promoter
Description: (§1) BzATP-stimulated pore activation of P2X7 and P2X7-j receptor proteins was also determined. FIG. 13. MDCK cells or HEK-293 cells expressing either P2X7 or P2X7-j were treated with BzATP in the presence of ethidium bromide. Fluorescence of ethidium bromide was measured after BzATP activation (100 micromolar) as a measure of ethidium bromide entry into the cells via the P2X7-mediated pore. Results in seven Panels (A-G) each composed of 30 exposures of cells placed on a glass slide. The direction of the pictures in each Panel is left to right, and then up-down. […] FIG. 13, Panel B and Panel F, respectively.
(§2) A quantification of the changes in ethidium bromide signaling from experiments similar to those in FIG. 13 was then calculated. FIG. 14.

[7] = biological target: T4, P2X7-mediated pore (MDCK cells expressing P2X7 or P2X7-j) (Homo sapiens, UniProt Q99572, Y155H); assay: as above; format: cell-based; details: doxycycline-treated MDCK-P2X7-j cells compared to MDCK-P2X7 cells
T4 construct: expressed in transfected cells; host or cells: MDCK (canine kidney), doxycycline-inducible promoter
Description: as §1, §2

[8] = biological target: T5, P2X7-mediated pore (HEK-293 cells expressing P2X7 or P2X7-j) (Homo sapiens, UniProt Q99572, R270H/Y155H); format: cell-based; details: HEK-293-P2X7 cells; BzATP 100 micromolar
T5 construct: expressed in transfected cells; host or cells: HEK-293

[9] = biological target: T6, P2X7-mediated pore (HEK-293 cells expressing P2X7 or P2X7-j) (Homo sapiens, UniProt Q99572, Y155H); format: cell-based; details: HEK-293-P2X7-j cells compared to HEK-293-P2X7 cells
T6 construct: expressed in transfected cells; host or cells: HEK-293

[10] = test system: P2X7-mediated pore (HEK-293 cells expressing P2X7 or P2X7-j); format: cell-based, human; details: P2X7 plus P2X7-j HEK-293 cells compared to P2X7 HEK-293 cells
[11] = biological target: T7, full-length human P2X7 receptor (HEK-293-hP2X7-R cells) (Homo sapiens, UniProt Q99572); assay: Cytosolic calcium in HEK-293-hP2X7-R and wild-type HEK293 cells on filters; format: cell-based
T7 construct: For transfections, the full length human P2X7 receptor; expressed in transfected cells; host or cells: HEK-293, pcDNA-6 vector
T7 sequence (Q99572 1-595): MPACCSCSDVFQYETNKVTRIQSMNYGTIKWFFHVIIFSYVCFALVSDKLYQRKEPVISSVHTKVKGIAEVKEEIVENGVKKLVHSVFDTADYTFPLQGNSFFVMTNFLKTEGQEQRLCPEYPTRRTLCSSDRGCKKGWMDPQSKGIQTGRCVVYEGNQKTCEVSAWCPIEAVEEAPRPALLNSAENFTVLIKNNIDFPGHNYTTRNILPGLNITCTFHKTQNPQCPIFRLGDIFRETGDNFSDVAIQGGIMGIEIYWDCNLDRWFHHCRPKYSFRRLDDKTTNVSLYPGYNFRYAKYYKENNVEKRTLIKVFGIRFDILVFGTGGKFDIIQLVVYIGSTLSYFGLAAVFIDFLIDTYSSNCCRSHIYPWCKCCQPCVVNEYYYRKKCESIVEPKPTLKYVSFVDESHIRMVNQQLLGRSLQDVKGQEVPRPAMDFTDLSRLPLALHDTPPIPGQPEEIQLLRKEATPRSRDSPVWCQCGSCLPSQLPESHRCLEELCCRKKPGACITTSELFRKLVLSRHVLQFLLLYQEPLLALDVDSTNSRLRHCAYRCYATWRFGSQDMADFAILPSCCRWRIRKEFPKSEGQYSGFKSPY

T6 sequence (Q99572 1-258 isoform Q99572-9 Y155H): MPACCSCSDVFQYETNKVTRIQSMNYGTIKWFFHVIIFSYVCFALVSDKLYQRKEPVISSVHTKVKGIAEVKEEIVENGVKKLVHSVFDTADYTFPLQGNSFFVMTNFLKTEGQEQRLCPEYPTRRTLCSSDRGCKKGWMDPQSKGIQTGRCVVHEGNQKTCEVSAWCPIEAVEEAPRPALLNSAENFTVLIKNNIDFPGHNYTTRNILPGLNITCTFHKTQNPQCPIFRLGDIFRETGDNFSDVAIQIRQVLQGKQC
T2 sequence (Q99572 1-258 isoform Q99572-9 Y155H): as above
T4 sequence (Q99572 1-258 isoform Q99572-9 Y155H): as above
T3 sequence (Q99572 whole entry Y155H/R270H): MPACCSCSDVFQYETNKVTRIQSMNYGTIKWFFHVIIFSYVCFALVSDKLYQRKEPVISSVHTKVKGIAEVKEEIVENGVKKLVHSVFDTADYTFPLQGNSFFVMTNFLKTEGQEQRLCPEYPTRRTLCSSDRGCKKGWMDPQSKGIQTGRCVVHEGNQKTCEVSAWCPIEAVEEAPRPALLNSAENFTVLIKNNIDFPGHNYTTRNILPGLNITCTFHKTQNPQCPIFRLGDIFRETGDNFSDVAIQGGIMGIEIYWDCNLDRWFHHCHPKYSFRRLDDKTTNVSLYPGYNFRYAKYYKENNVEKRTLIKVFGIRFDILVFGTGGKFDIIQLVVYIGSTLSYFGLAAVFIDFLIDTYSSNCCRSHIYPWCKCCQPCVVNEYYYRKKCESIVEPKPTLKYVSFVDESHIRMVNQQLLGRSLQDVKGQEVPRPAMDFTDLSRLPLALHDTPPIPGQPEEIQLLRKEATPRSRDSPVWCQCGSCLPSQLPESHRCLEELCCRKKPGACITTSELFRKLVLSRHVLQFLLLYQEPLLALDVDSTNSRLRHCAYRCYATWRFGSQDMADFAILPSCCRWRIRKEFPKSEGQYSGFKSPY
T1 sequence (Q99572 whole entry Y155H/R270H): as above
T5 sequence (Q99572 whole entry Y155H/R270H): as above

Substance: 2′-3′-O-(4-benzoylbenzoyl)adenosine 5′-triphosphate [BzATP]
- growth of cells (cell number) ([1]; HEK-293-P2X7-j cells): no significant effect
- growth of cells (cell number) ([1]; HEK-293-P2X7 cells): significantly decreased further the growth
- growth of cells (cell number) ([1]; wild-type HEK-293 cells): no significant effect
- apoptosis [2]: further increased this baseline apoptosis
- Fluo-4 signal (cytosolic calcium) [3]: increased acutely the Fluo-4 signal
- calcium response to BzATP [4]: significantly smaller
- calcium response to BzATP [5]: significantly smaller
- ethidium bromide signaling (pore) [6]: increased ethidium bromide signaling
- ethidium bromide signaling response to BzATP [7]: significantly smaller
- ethidium bromide signaling (pore) [8]: increased ethidium bromide signaling
- ethidium bromide signaling response to BzATP [9]: significantly smaller
- ethidium bromide response to BzATP [10]: significantly smaller
- sustained cytosolic calcium increase [11]: induced sustained Ci increase
